Among the data in the supplement of paper PMC10307832 are relative viability values, retold here.

Holding throughout (assay): relative viability (nuclei count vs DMSO), 5 days (fraction); higher = more cells survive
Compound in the test “Linsitinib + Tozasertib”: C[C@]1(O)C[C@@H](c2nc(-c3ccc4ccc(-c5ccccc5)nc4c3)c3c(N)nccn32)C1 [Linsitinib] + Cc1cc(Nc2cc(N3CCN(C)CC3)nc(Sc3ccc(NC(=O)C4CC4)cc3)n2)n[nH]1 [Tozasertib] (partner 0.1 µM)
Summed up: (§1)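 The day after seeding in 1536-well plates, lung cancer cell lines were treated by pin tool with a single drug, or with a fixed anchor-drug dose together with five library-drug doses (not always all listed) in √10 steps. After 5 days, a combined fix-and-stain solution (final 0.05% Triton X-100, 1% formaldehyde, 1 ug/ml Hoechst) was added. Nuclei counted on 4× images gave relative viability as treated counts over vehicle counts, reported as the median of duplicate plates.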

Compound in the test “Linsitinib + Dasatinib”: C[C@]1(O)C[C@@H](c2nc(-c3ccc4ccc(-c5ccccc5)nc4c3)c3c(N)nccn32)C1 [Linsitinib] + Cc1nc(Nc2ncc(C(=O)Nc3c(C)cccc3Cl)s2)cc(N2CCN(CCO)CC2)n1 [Dasatinib] (partner 0.075 µM)
In outline: as §1

Compound in the test “Ispinesib + Luminespib”: Cc1ccc(C(=O)N(CCCN)[C@@H](c2nc3cc(Cl)ccc3c(=O)n2Cc2ccccc2)C(C)C)cc1 [Ispinesib] + CCNC(=O)c1noc(-c2cc(C(C)C)c(O)cc2O)c1-c1ccc(CN2CCOCC2)cc1 [Luminespib] (partner 0.01 µM)
In outline: as §1

Compound in the test “Ispinesib + Alpelisib”: Cc1ccc(C(=O)N(CCCN)[C@@H](c2nc3cc(Cl)ccc3c(=O)n2Cc2ccccc2)C(C)C)cc1 [Ispinesib] + Cc1nc(NC(=O)N2CCC[C@H]2C(N)=O)sc1-c1ccnc(C(C)(C)C(F)(F)F)c1 [Alpelisib] (partner 2 µM)
Summed up:
as §1

In the case of NCI-H520, the relative viability with Linsitinib + Tozasertib (first compound 0.01 µM) came to 0.426; in the test with Linsitinib + Tozasertib (first compound 0.03162 µM) it was 0.39; in the test with Linsitinib + Tozasertib (first compound 0.1 µM), 0.494; with Linsitinib + Tozasertib (first compound 1 µM) it was 0.408; with Linsitinib + Dasatinib (first compound 0.01 µM), 0.191; with Linsitinib + Dasatinib (first compound 0.03162 µM), 0.192. Also, the relative viability came to 0.2 with Linsitinib + Dasatinib (first compound 0.1 µM); 0.195 in the test with Linsitinib + Dasatinib (first compound 1 µM); 0.24 with Ispinesib + Luminespib (first compound 0.001 µM); 0.17 in the test with Ispinesib + Luminespib (first compound 0.003162 µM); 0.207 with Ispinesib + Luminespib (first compound 0.01 µM); 0.206 with Ispinesib + Luminespib (first compound 0.03162 µM). Moreover, the relative viability is 0.204 in the test with Ispinesib + Luminespib (first compound 0.1 µM); 1.04 with Ispinesib + Alpelisib (first compound 0.001 µM); 0.98 with Ispinesib + Alpelisib (first compound 0.003162 µM); 0.767 with Ispinesib + Alpelisib (first compound 0.01 µM); 0.276 with Ispinesib + Alpelisib (first compound 0.03162 µM); 0.243 in the test with Ispinesib + Alpelisib (first compound 0.1 µM).
Consider NCI-H650, for which the relative viability worked out at 0.762 in the test with Linsitinib + Tozasertib (first compound 0.01 µM); 0.786 with Linsitinib + Tozasertib (first compound 0.03162 µM); 0.699 with Linsitinib + Tozasertib (first compound 0.1 µM); 0.502 with Linsitinib + Tozasertib (first compound 0.3162 µM); 0.601 in the test with Linsitinib + Tozasertib (first compound 1 µM); 0.45 with Linsitinib + Dasatinib (first compound 0.01 µM). For the same cell line, the relative viability came to 0.432 with Linsitinib + Dasatinib (first compound 0.03162 µM); 0.47 in the test with Linsitinib + Dasatinib (first compound 0.1 µM); 0.374 with Linsitinib + Dasatinib (first compound 0.3162 µM); 0.325 in the test with Linsitinib + Dasatinib (first compound 1 µM); 0.739 in the test with Ispinesib + Luminespib (first compound 0.001 µM); 0.836 with Ispinesib + Luminespib (first compound 0.003162 µM). Besides, the relative viability is 0.808 with Ispinesib + Luminespib (first compound 0.01 µM); 0.621 in the test with Ispinesib + Luminespib (first compound 0.03162 µM); 0.783 with Ispinesib + Luminespib (first compound 0.1 µM); 1.11 with Ispinesib + Alpelisib (first compound 0.001 µM); 1.23 in the test with Ispinesib + Alpelisib (first compound 0.003162 µM); 1.29 with Ispinesib + Alpelisib (first compound 0.01 µM). The relative viability came out at 1.05 with Ispinesib + Alpelisib (first compound 0.03162 µM) and 0.353 with Ispinesib + Alpelisib (first compound 0.1 µM).
For COR-L 105, the relative viability with Linsitinib + Tozasertib (first compound 0.01 µM) turned out to be 0.421; with Linsitinib + Tozasertib (first compound 0.03162 µM) it was 0.324; with Linsitinib + Tozasertib (first compound 0.1 µM), 0.356; in the test with Linsitinib + Tozasertib (first compound 0.3162 µM), 0.298; with Linsitinib + Tozasertib (first compound 1 µM), 0.309; with Linsitinib + Dasatinib (first compound 0.01 µM), 0.321. The relative viability was 0.374 with Linsitinib + Dasatinib (first compound 0.03162 µM); 0.294 with Linsitinib + Dasatinib (first compound 0.1 µM); 0.289 with Linsitinib + Dasatinib (first compound 0.3162 µM); 0.252 in the test with Linsitinib + Dasatinib (first compound 1 µM); 0.737 in the test with Ispinesib + Luminespib (first compound 0.001 µM); 0.666 with Ispinesib + Luminespib (first compound 0.003162 µM). Also, the relative viability with Ispinesib + Luminespib (first compound 0.01 µM) turned out to be 0.808; with Ispinesib + Luminespib (first compound 0.03162 µM) it was 0.349; in the test with Ispinesib + Luminespib (first compound 0.1 µM), 0.439; with Ispinesib + Alpelisib (first compound 0.001 µM), 1.15; with Ispinesib + Alpelisib (first compound 0.003162 µM), 0.952; with Ispinesib + Alpelisib (first compound 0.01 µM) it was 0.89. In addition, the relative viability turned out to be 0.562 in the test with Ispinesib + Alpelisib (first compound 0.03162 µM) and 0.35 with Ispinesib + Alpelisib (first compound 0.1 µM).
Consider NCI-H1755, for which the relative viability with Linsitinib + Tozasertib (first compound 0.01 µM) worked out at 0.585; in the test with Linsitinib + Tozasertib (first compound 0.03162 µM) it was 0.587; with Linsitinib + Tozasertib (first compound 0.1 µM), 0.569; with Linsitinib + Tozasertib (first compound 0.3162 µM) it was 0.375; in the test with Linsitinib + Tozasertib (first compound 1 µM) it was 0.514; with Linsitinib + Dasatinib (first compound 0.01 µM) it was 0.428. Moreover, the relative viability with Linsitinib + Dasatinib (first compound 0.03162 µM) worked out at 0.431; with Linsitinib + Dasatinib (first compound 0.1 µM), 0.427; with Linsitinib + Dasatinib (first compound 0.3162 µM) it was 0.363; in the test with Linsitinib + Dasatinib (first compound 1 µM) it was 0.229; with Ispinesib + Luminespib (first compound 0.001 µM) it was 0.292; with Ispinesib + Luminespib (first compound 0.003162 µM), 0.641. In addition, the relative viability in the test with Ispinesib + Luminespib (first compound 0.01 µM) stood at 0.423; with Ispinesib + Luminespib (first compound 0.03162 µM) it was 0.315; with Ispinesib + Luminespib (first compound 0.1 µM), 0.441; with Ispinesib + Alpelisib (first compound 0.001 µM), 1.09; in the test with Ispinesib + Alpelisib (first compound 0.003162 µM) it was 1.03; with Ispinesib + Alpelisib (first compound 0.01 µM) it was 1.16. For the same cell line, the values for the relative viability with Ispinesib + Alpelisib (first compound 0.03162 µM) and with Ispinesib + Alpelisib (first compound 0.1 µM) were 0.815 and 0.547, respectively.
Consider NCI-H2085, for which the relative viability with Linsitinib + Tozasertib (first compound 0.01 µM) worked out at 0.768; with Linsitinib + Tozasertib (first compound 0.03162 µM), 0.748; with Linsitinib + Tozasertib (first compound 0.1 µM) it was 0.932; with Linsitinib + Tozasertib (first compound 0.3162 µM), 0.817; with Linsitinib + Tozasertib (first compound 1 µM), 0.706; with Linsitinib + Dasatinib (first compound 0.01 µM), 0.275. In addition, the relative viability in the test with Linsitinib + Dasatinib (first compound 0.03162 µM) turned out to be 0.257; with Linsitinib + Dasatinib (first compound 0.1 µM), 0.22; with Linsitinib + Dasatinib (first compound 0.3162 µM), 0.246; in the test with Linsitinib + Dasatinib (first compound 1 µM), 0.23; in the test with Ispinesib + Luminespib (first compound 0.001 µM), 0.484; in the test with Ispinesib + Luminespib (first compound 0.003162 µM), 0.421. Further, the relative viability was 0.491 in the test with Ispinesib + Luminespib (first compound 0.01 µM); 0.401 in the test with Ispinesib + Luminespib (first compound 0.03162 µM); 0.447 with Ispinesib + Luminespib (first compound 0.1 µM); 0.997 with Ispinesib + Alpelisib (first compound 0.001 µM); 1.04 with Ispinesib + Alpelisib (first compound 0.003162 µM); 1.04 with Ispinesib + Alpelisib (first compound 0.01 µM). Moreover, the relative viability with Ispinesib + Alpelisib (first compound 0.03162 µM) worked out at 1.02; in the test with Ispinesib + Alpelisib (first compound 0.1 µM), 0.688.
Consider NCI-H2023, for which the relative viability worked out at 0.256 with Linsitinib + Tozasertib (first compound 0.01 µM); 0.228 with Linsitinib + Tozasertib (first compound 0.03162 µM); 0.36 with Linsitinib + Tozasertib (first compound 0.1 µM); 0.196 in the test with Linsitinib + Tozasertib (first compound 0.3162 µM); 0.177 with Linsitinib + Tozasertib (first compound 1 µM); 0.472 with Linsitinib + Dasatinib (first compound 0.01 µM). In addition, the relative viability worked out at 0.373 with Linsitinib + Dasatinib (first compound 0.03162 µM); 0.528 with Linsitinib + Dasatinib (first compound 0.1 µM); 0.29 with Linsitinib + Dasatinib (first compound 0.3162 µM); 0.218 with Linsitinib + Dasatinib (first compound 1 µM); 0.793 with Ispinesib + Luminespib (first compound 0.001 µM); 0.628 in the test with Ispinesib + Luminespib (first compound 0.003162 µM). Moreover, the relative viability stood at 1.07 with Ispinesib + Luminespib (first compound 0.01 µM); 0.29 in the test with Ispinesib + Luminespib (first compound 0.03162 µM); 0.179 with Ispinesib + Luminespib (first compound 0.1 µM); 0.65 with Ispinesib + Alpelisib (first compound 0.001 µM); 0.606 with Ispinesib + Alpelisib (first compound 0.003162 µM); 0.659 with Ispinesib + Alpelisib (first compound 0.01 µM). For the same cell line, the figures for the relative viability with Ispinesib + Alpelisib (first compound 0.03162 µM) and with Ispinesib + Alpelisib (first compound 0.1 µM) were 0.5 and 0.18, respectively.
With HOP-62, the relative viability with Linsitinib + Tozasertib (first compound 0.01 µM) was 0.356; in the test with Linsitinib + Tozasertib (first compound 0.03162 µM), 0.336; with Linsitinib + Tozasertib (first compound 0.1 µM), 0.335; with Linsitinib + Tozasertib (first compound 1 µM), 0.344; in the test with Linsitinib + Dasatinib (first compound 0.01 µM) it was 0.65; with Linsitinib + Dasatinib (first compound 0.03162 µM) it was 0.692. The relative viability with Linsitinib + Dasatinib (first compound 0.1 µM) stood at 0.643; with Linsitinib + Dasatinib (first compound 1 µM) it was 0.565; with Ispinesib + Luminespib (first compound 0.001 µM), 0.899; in the test with Ispinesib + Luminespib (first compound 0.003162 µM) it was 1.02; with Ispinesib + Luminespib (first compound 0.01 µM) it was 0.93; in the test with Ispinesib + Luminespib (first compound 0.03162 µM) it was 0.794. The relative viability in the test with Ispinesib + Luminespib (first compound 0.1 µM) turned out to be 0.814; with Ispinesib + Alpelisib (first compound 0.001 µM), 0.656; with Ispinesib + Alpelisib (first compound 0.003162 µM) it was 0.957; with Ispinesib + Alpelisib (first compound 0.01 µM), 0.908; with Ispinesib + Alpelisib (first compound 0.03162 µM), 1.17; with Ispinesib + Alpelisib (first compound 0.1 µM), 0.981.
